Measured values published in patent publication US8435980B2 (AbbVie Inc., priority 2009, dated 2013).

The compounds below were run against T1, Cdc7 (BEV coexpressed huCDC7/DBF4) (Homo sapiens, UniProt O00311) (assay: Cdc7 enzyme inhibition assay ([33P]ATP, biotinylated peptide substrate, FlashPlate)). Conditions: not given.
T1 construct: made in house; host or cells: BEV (baculovirus expression vector) co-expression; insect cells are implied but no cell line is named
Assay type: biochemical
Protocol: Cdc7 (BEV coexpressed huCDC7/DBF4) is prepared internally. Cdc7 assays are conducted as follows with final concentrations as listed. […] Reactions are quenched after 1 hr by the addition of 90 μL stop buffer (50 mM EDTA, 2M NaCl). […] (Ki) for exemplary compounds.

T1 sequence (O00311 whole entry): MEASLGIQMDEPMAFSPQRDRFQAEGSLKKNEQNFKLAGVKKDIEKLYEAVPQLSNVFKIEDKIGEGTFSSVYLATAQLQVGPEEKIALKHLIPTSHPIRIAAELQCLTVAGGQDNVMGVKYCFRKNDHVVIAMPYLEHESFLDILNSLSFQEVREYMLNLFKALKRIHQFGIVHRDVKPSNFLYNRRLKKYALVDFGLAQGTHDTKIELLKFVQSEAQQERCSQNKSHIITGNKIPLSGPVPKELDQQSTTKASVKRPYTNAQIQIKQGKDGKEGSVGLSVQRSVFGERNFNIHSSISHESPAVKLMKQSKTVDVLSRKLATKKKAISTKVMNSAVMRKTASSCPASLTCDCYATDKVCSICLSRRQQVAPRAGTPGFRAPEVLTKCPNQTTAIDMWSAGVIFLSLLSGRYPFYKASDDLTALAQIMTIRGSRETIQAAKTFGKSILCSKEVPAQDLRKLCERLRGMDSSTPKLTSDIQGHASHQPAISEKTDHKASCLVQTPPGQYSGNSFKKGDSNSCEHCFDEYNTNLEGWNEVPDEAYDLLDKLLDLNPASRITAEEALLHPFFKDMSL
T1 sequence (Q9UBU7 whole entry partner): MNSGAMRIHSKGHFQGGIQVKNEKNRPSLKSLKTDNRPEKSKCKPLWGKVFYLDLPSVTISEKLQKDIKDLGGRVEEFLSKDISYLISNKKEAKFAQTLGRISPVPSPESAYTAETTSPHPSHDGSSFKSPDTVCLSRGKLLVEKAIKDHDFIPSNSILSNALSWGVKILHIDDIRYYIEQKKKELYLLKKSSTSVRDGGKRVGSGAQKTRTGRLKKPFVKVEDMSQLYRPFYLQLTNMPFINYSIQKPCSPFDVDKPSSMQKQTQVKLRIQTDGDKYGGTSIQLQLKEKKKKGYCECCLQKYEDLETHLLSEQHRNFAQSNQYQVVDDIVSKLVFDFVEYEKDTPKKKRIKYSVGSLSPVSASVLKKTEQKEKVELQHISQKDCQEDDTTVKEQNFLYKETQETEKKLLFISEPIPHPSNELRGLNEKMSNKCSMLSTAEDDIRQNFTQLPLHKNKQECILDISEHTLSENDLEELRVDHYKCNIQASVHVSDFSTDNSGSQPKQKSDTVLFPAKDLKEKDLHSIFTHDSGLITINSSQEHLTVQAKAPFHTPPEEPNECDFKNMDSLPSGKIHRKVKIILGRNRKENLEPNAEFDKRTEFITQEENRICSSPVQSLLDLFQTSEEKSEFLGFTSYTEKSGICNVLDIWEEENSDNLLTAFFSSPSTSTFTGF

Ki [nM] | Structure (SMILES)
< 10 | O[C@H]1CC[C@H](Nc2nc(Cl)cc(-c3c[nH]c4ncccc34)n2)CC1 [Example 44, Trans-4-{[4-chloro-6-(1H-pyrrolo[2,3-b]pyridin-3-yl)pyrimidin-2-yl]amino}cyclohexanol]
< 10 | OCCNc1cc(-c2c[nH]c3ncccc23)cc(Cl)n1 [Example 11, 2-{[6-chloro-4-(1H-pyrrolo[2,3-b]pyridin-3-yl)pyridin-2-yl]amino}ethanol]
10 to 100 | COC[C@H](Cc1ccccc1)Nc1nc(Cl)cc(-c2c[nH]c3ncccc23)n1 [Example 48, (S)-4-chloro-N-(1-methoxy-3-phenylpropan-2-yl)-6-(1H-pyrrolo[2,3-b]pyridine-3-yl)pyrimidin-2-amine]
10 to 100 | Clc1cc(-c2c[nH]c3ncccc23)cc(NC2CCNCC2)n1 [Example 33, 6-chloro-N-piperidin-4-yl-4-(1H-pyrrolo[2,3-b]pyridin-3-yl)pyridin-2-amine]

Same assay, conditions: Table 2; Comparative Example lacking the chloro substituent versus the chloro Example

Ki ratio comparisons (Ki Comparative Example/Ki Example) | Structure (SMILES)
12 | N[C@H]1CC[C@H](Nc2nccc(-c3c[nH]c4ncccc34)n2)CC1 [Comparative Example 13, Trans-N-[4-(1H-pyrrolo[2,3-b]pyridin-3-yl)pyrimidin-2-yl]cyclohexane-1,4-diamine, reference compound]

Same assay, conditions: Table 3; enzyme inhibition data (Ki)

Ki [nM] | Structure (SMILES)
10 to 100 | O=C(N[C@H]1CC[C@H](Nc2cc(-c3c[nH]c4ncccc34)cc(Cl)n2)CC1)c1ccc(OC(F)(F)F)cc1 [Example 203, N-(trans-4-{[6-chloro-4-(1H-pyrrolo[2,3-b]pyridin-3-yl)pyridin-2-yl]-amino}cyclohexyl)-4-(trifluoromethoxy)benzamide]
< 10 | CC(C)NC(=O)NC1CCCC(Nc2cc(-c3c[nH]c4ncccc34)cc(Cl)n2)C1 (stereo not drawn) [Example 301, 1-(3-{[6-chloro-4-(1H-pyrrolo[2,3-b]pyridin-3-yl)pyridin-2-yl]amino}cyclohexyl)-3-propan-2-ylurea]
< 10 | CC(C)CNC1CCCC(Nc2cc(-c3c[nH]c4ncccc34)cc(Cl)n2)C1 (stereo not drawn) [Example 58, N-[6-chloro-4-(1H-pyrrolo[2,3-b]pyridin-3-yl)pyridin-2-yl]-N′-(2-methylpropyl)cyclohexane-1,3-diamine]
< 10 | Clc1cc(-c2c[nH]c3ncccc23)cc(NCCN2CCOCC2)n1 [Example 56, 6-chloro-N-[2-(morpholin-4-yl)ethyl]-4-(1H-pyrrolo[2,3-b]pyridin-3-yl)pyridin-2-amine]
< 10 | CCCCN1CCN(CC(=O)N[C@H]2CC[C@H](Nc3cc(-c4c[nH]c5ncccc45)cc(Cl)n3)CC2)CC1 [Example 232, 2-(4-butylpiperazine-1-yl)-N-(trans-4-{[6-chloro-4-(1H-pyrrolo[2,3-b]pyridin-3-yl)pyridin-2-yl]amino}cyclohexyl)acetamide]
< 10 | O=C(CNC1CCCC1)N[C@H]1CC[C@H](Nc2nc(Cl)cc(-c3c[nH]c4ncccc34)n2)CC1 [Example 478, N-(trans-4-{[4-chloro-6-(1H-pyrrolo[2,3-b]pyridin-3-yl)pyrimidin-2-yl]amino}cyclohexyl)-N~2~-cyclopentylglycinamide]
< 10 | O=C(N[C@H]1CC[C@H](Nc2cc(-c3c[nH]c4ncccc34)cc(Cl)n2)CC1)C1CNC1 [Example 160, N-(trans-4-{[6-chloro-4-(1H-pyrrolo[2,3-b]pyridin-3-yl)pyridin-2-yl]amino}cyclohexyl)azetidine-3-carboxamide]
< 10 | COC[C@H](Cc1ccccc1)Nc1cc(-c2c[nH]c3ncccc23)cc(Cl)n1 [Example 284, 6-chloro-N-[(2S)-1-methoxy-3-phenylpropan-2-yl]-4-(1H-pyrrolo[2,3-b]pyridin-3-yl)pyridin-2-amine]
< 10 | CN[C@@H](C(=O)N[C@@H]1CCC[C@@H](Nc2cc(-c3c[nH]c4ncccc34)cc(Cl)n2)C1)c1ccccc1 [Example 329, (2R)—N-[(1R,3R)-3-{[6-chloro-4-(1H-pyrrolo[2,3-b]pyridin-3-yl)pyridin-2-yl]amino}cyclohexyl]-2-(methylamino)-2-phenylethanamide]
< 10 | O=C(CN1C(=O)c2ccccc2C1=O)N[C@H]1CC[C@H](Nc2nc(Cl)cc(-c3c[nH]c4ncccc34)n2)CC1 [Example 472, N-(trans-4-{[4-chloro-6-(1H-pyrrolo[2,3-b]pyridin-3-yl)pyrimidin-2-yl]amino}cyclohexyl)-2-(1,3-dioxo-1,3-dihydro-2H-isoindol-2-yl)acetamide]
< 10 | COc1cnc2[nH]cc(-c3cc(Cl)nc(NC4CCC(CC5CCC(NS(=O)(=O)c6c(C)noc6C)CC5)CC4)c3)c2c1 (stereo not drawn) [Example 447, N-{4-[(4-{[6-chloro-4-(5-methoxy-1H-pyrrolo[2,3-b]pyridin-3-yl)pyridin-2-yl]amino}cyclohexyl)methyl]cyclohexyl}-3,5-dimethyl-1,2-oxazole-4-sulfonamide]
< 10 | C=CCNC(=O)NC1CCC(Nc2cc(-c3c[nH]c4ncccc34)cc(Cl)n2)CC1 (stereo not drawn) [Example 297, 1-(4-{[6-chloro-4-(1H-pyrrolo[2,3-b]pyridin-3-yl)pyridin-2-yl]amino}cyclohexyl)-3-prop-2-en-1-ylurea]
< 10 | Clc1cc(-c2c[nH]c3ncccc23)cc(NCCc2ccccn2)n1 [Example 387, 6-chloro-N-[2-(pyridin-2-yl)ethyl]-4-(1H-pyrrolo[2,3-b]pyridin-3-yl)pyridin-2-amine]
10 to 100 | CN1CCN(CCCNc2cc(-c3c[nH]c4ncccc34)cc(Cl)n2)CC1 [Example 389, 6-chloro-N-[3-(4-methylpiperazin-1-yl)propyl]-4-(1H-pyrrolo[2,3-b]pyridin-3-yl)pyridin-2-amine]
< 10 | CC(=O)N1CCCC(Nc2cc(-c3c[nH]c4ncccc34)cc(Cl)n2)C1 (stereo not drawn) [Example 147, 1-(3-{[6-chloro-4-(1H-pyrrolo[2,3-b]pyridin-3-yl)pyridin-2-yl]amino}piperidin-1-yl)ethanone]
< 10 | CN1CCC(N2CCC(Nc3cc(-c4c[nH]c5ncccc45)cc(Cl)n3)CC2)CC1 [Example 191, N-[6-chloro-4-(1H-pyrrolo[2,3-b]pyridin-3-yl)pyridin-2-yl]-1′-methyl-1,4′-bipiperidin-4-amine]
< 10 | COc1ccc(CCNc2cc(-c3c[nH]c4ncccc34)cc(Cl)n2)cc1 [Example 401, 6-chloro-N-[2-(4-methoxyphenyl)ethyl]-4-(1H-pyrrolo[2,3-b]pyridin-3-yl)pyridin-2-amine]
< 10 | O=C(CN1CCN(CCO)CC1)N[C@H]1CC[C@H](Nc2cc(-c3c[nH]c4ncccc34)cc(Cl)n2)CC1 [Example 422, N-(trans-4-{[6-chloro-4-(1H-pyrrolo[2,3-b]pyridin-3-yl)pyridin-2-yl]amino}cyclohexyl)-2-[4-(2-hydroxyethyl)piperazin-1-yl]acetamide]
< 10 | CCCS(=O)(=O)NC1CCC(Nc2cc(-c3c[nH]c4ncccc34)cc(Cl)n2)CC1 (stereo not drawn) [Example 55, N-(4-{[6-chloro-4-(1H-pyrrolo[2,3-b]pyridin-3-yl)pyridin-2-yl]amino}cyclohexyl)propane-1-sulfonamide]
< 10 | Clc1cc(-c2c[nH]c3ncccc23)cc(N[C@H]2CC[C@H](NCC3CC3)CC2)n1 [Example 109, trans-N-[6-chloro-4-(1H-pyrrolo[2,3-b]pyridin-3-yl)pyridin-2-yl]-N′-(cyclopropylmethyl)cyclohexane-1,4-diamine]
< 10 | O=S(=O)(N[C@H]1CC[C@H](Nc2cc(-c3c[nH]c4ncccc34)cc(Cl)n2)CC1)C1CC1 [Example 61, N-(trans-4-{[6-chloro-4-(1H-pyrrolo[2,3-b]pyridin-3-yl)pyridin-2-yl]amino}cyclohexyl)cyclopropanesulfonamide]
< 10 | CN1C(=O)CC[C@H]1C(=O)N[C@H]1CC[C@H](Nc2cc(-c3c[nH]c4ncccc34)cc(Cl)n2)CC1 (relative stereo) [Example 342, N-(trans-4-{[6-chloro-4-(1H-pyrrolo[2,3-b]pyridin-3-yl)pyridin-2-yl]amino}cyclohexyl)-1-methyl-5-oxoprolinamide]
< 10 | COc1cnc2[nH]cc(-c3cc(Cl)nc(N[C@H]4CC[C@H](NC(=O)CNC(C)C)CC4)c3)c2c1 [Example 446, N-(trans-4-{[6-chloro-4-(5-methoxy-1H-pyrrolo[2,3-b]pyridin-3-yl)pyridin-2-yl]amino}cyclohexyl)-N~2~-propan-2-ylglycinamide]
< 10 | CC1CCC(NCC(=O)N[C@H]2CC[C@H](Nc3cc(-c4c[nH]c5ncccc45)cc(Cl)n3)CC2)CC1 (relative stereo) [Example 354, N-(trans-4-{[6-chloro-4-(1H-pyrrolo[2,3-b]pyridin-3-yl)pyridin-2-yl]amino}cyclohexyl)-N~2~-(4-methylcyclohexyl)glycinamide]
10 to 100 | Clc1cc(-c2c[nH]c3ncccc23)cc(NC2CCCC(NC3CCCC3)C2)n1 (stereo not drawn) [Example 285, N-[6-chloro-4-(1H-pyrrolo[2,3-b]pyridin-3-yl)pyridin-2-yl]-N′-cyclopentylcyclohexane-1,3-diamine]
< 10 | O=C(CN1CCN(c2ccc(F)cc2)CC1)N[C@H]1CC[C@H](Nc2cc(-c3c[nH]c4ncccc34)cc(Cl)n2)CC1 [Example 229, N-(trans-4-{[6-chloro-4-(1H-pyrrolo[2,3-b]pyridin-3-yl)pyridin-2-yl]amino}cyclohexyl)-2-[4-(4-fluorophenyl)piperazin-1-yl]acetamide]
< 10 | CC(C)CN1CCN(c2ccc(Nc3cc(-c4c[nH]c5ncccc45)cc(Cl)n3)cc2)CC1 [Example 451, 6-chloro-N-{4-[4-(2-methylpropyl)piperazin-1-yl]phenyl}-4-(1H-pyrrolo[2,3-b]pyridin-3-yl)pyridin-2-amine]
< 10 | Clc1cc(-c2c[nH]c3ncccc23)cc(N[C@H]2CC[C@H](NC3CCC3)CC2)n1 [Example 105, trans-N-[6-chloro-4-(1H-pyrrolo[2,3-b]pyridin-3-yl)pyridin-2-yl]-N′-cyclobutylcyclohexane-1,4-diamine]
